# Tests used:
# P388 leukemia = assay: Antitumor activity against transplantable murine P388 leukemia in mice (i.p. implant); format: in vivo, murine (female CDF1 mice); conditions: i.p. on days 5 and 8; 10^6 ascites cells i.p.; maximum effect over doses; >=125 significant
# Method: (§1) Representative compounds of the present invention were evaluated for their antitumor activity in in vitro cytotoxicity assay against human and murine tumor cell lines, as well as against transplantable murine P388 leukemia.
# Female CDF1 mice were implanted intraperitoneally with a tumor inoculum of 10^6 ascites cells of P388 murine leukemia and treated with various doses of a test compound; four mice were used for each dose level and ten were used as saline-treated control. The compounds were administered by intraperitoneal injection on days 5 and 8 (day 1 being the day of tumor implantation). Antitumor activity was expressed as % T/C which is the ratio of the median survival time (MST) of drug-treated group to the MST of saline-treated control group. A compound showing a % T/C value of 125 or greater is generally considered to have significant antitumor activity in the P388 test. The experiment lasted 31 days at the end of which time the number of survivors was noted. Table I presents the results of the above-described evaluation; only the maximum % T/C and the dose showing the maximum effect are reported.
# KB human nasopharyngyl = assay: In vitro cytotoxicity assay, KB human nasopharyngyl; format: cell-based; conditions: inhibit cell growth by 50%, four-fold serial dilution, two lines per compound
# Method: as §1
# (§2) The in vitro cytotoxicity assay involved growing various mammalian tumor cells, including human tumor cells, on microtitre plates employing established tissue culture methods. The concentration of each compound required to inhibit cell growth by 50% (IC50) was then determined by a four-fold serial dilution technique. The validity of the method has been supported by a report published in the "Proceedings of the American Association for Cancer Research", 1984, 25: 1891 (Abst. No. 328). Tumor cells of the following types were employed for each compound tested: B16-F10 murine melanoma; KB human nasopharyngyl; Moser human colon; SW900 human lung; M109 murine lung; and three human colon tumor cell lines namely HCT-116, HCT-VM, and HCT-VP, the latter two being resistant to teniposide (VM) and etoposide (VP), respectively. IC50 values less than 500 μg/ml are a positive indicator of antitumor activity. Table II presents IC50 values of various compounds of the present invention against the aforementioned cell lines.
# B16-F10 murine melanoma = assay: In vitro cytotoxicity assay, B16-F10 murine melanoma; format: cell-based; conditions: four-fold serial dilution, <500 μg/ml positive, two lines per compound; for IC50: Mus musculus, B16-F10, inhibit cell growth by 50%, read-out: IC50 B-16-F10; for IC50 B-16-F10: inhibit cell growth by 50%
# Method: as §1, §2
# M109 murine lung = assay: In vitro cytotoxicity assay, M109 murine lung; format: cell-based; conditions: four-fold serial dilution, two lines per compound; for IC50: Mus musculus, M109, inhibit cell growth by 50%; for IC50 M109: inhibit cell growth by 50%
# Method: as §1, §2
# Moser human colon = assay: In vitro cytotoxicity assay, Moser human colon; format: cell-based; conditions: inhibit cell growth by 50%, four-fold serial dilution, two lines per compound; for IC50: Homo sapiens
# Method: as §1, §2
# HCT-116 = assay: In vitro cytotoxicity assay, HCT-116 human colon; format: cell-based; conditions: four-fold serial dilution, two lines per compound; for IC50: Homo sapiens, HCT-116, inhibit cell growth by 50%; for IC50 HCT-116: inhibit cell growth by 50%
# Method: as §1, §2
# SW900 human lung = assay: In vitro cytotoxicity assay, SW900 human lung; format: cell-based; conditions: four-fold serial dilution, two lines per compound; for IC50: Homo sapiens, SW900, inhibit cell growth by 50%
# Method: as §1, §2
# HCT/VM46 = assay: In vitro cytotoxicity assay, HCT/VM46 human colon, resistant to teniposide; format: cell-based; conditions: inhibit cell growth by 50%, two lines per compound
# Method: as §1, §2
# HCT/VP35 = assay: In vitro cytotoxicity assay, HCT/VP35 human colon, resistant to etoposide; format: cell-based; conditions: inhibit cell growth by 50%, two lines per compound
# Method: as §1, §2
# [1] = system: small cell lung cancer, non-lymphocytic leukemia, and non-seminomatous testicular cancer; conditions: AMA Drug Evaluation, 5th Edition, 1983; cited from earlier work
SMILES,Max. % T/C (median survival time treated / saline control) (P388 leukemia) [%],IC50 (KB human nasopharyngyl; Homo sapiens) [mg/L],IC50 KB (KB human nasopharyngyl) [mg/L],IC50 (B16-F10 murine melanoma) [mg/L],IC50 B-16-F10 (B16-F10 murine melanoma) [mg/L],IC50 (M109 murine lung) [mg/L],IC50 M109 (M109 murine lung) [mg/L],IC50 (Moser human colon) [mg/L],IC50 MOSER (Moser human colon) [mg/L],IC50 (HCT-116) [mg/L],IC50 HCT-116 (HCT-116) [mg/L],IC50 (SW900 human lung) [mg/L],IC50 SW900 (SW900 human lung; inhibit cell growth by 50%) [mg/L],IC50 (HCT/VM46; Homo sapiens) [mg/L],IC50 HCT/VM46 (HCT/VM46) [mg/L],"IC50 (HCT/VP35; Homo sapiens, HCT/VP35, etoposide-resistant) [mg/L]",IC50 HCT/VP35 (HCT/VP35; etoposide-resistant) [mg/L],activity in the treatment of a variety of cancers (in words) [1]
"COC1=CC(C2c3cc4c(cc3C(OC3OC5COC(C)OC5C(O)C3O)C3COC(=O)C23)OCO4)=CC(=NOCc2ccccc2)C1=NOCc1ccccc1 (stereo not shown) [Example 1, 4'-Dehydroxy-3'-demethoxy-etoposide 3',4'-bis-O-benzyloxime]",126,37,28,14.5,14.1,83,59,,,,,,,,,,,
"CON=C1C=C(C2c3cc4c(cc3C(OC3OC5COC(C)OC5C(O)C3O)C3COC(=O)C23)OCO4)C=C(OC)C1=NOC (stereo not shown) [Example 2, 4'-Dehydroxy-3'-demethoxy-etoposide 3',4'-bis-O-methyloxime]",175,,,29,51,,,54,40,84,91,> 250,,,,,,
"COc1cc(C2c3cc4c(cc3C(OC3OC5COC(C)OC5C(O)C3O)C3COC(=O)C23)OCO4)cc(N)c1N (stereo not shown) [Example 3, 4'-Dehydroxy-3'-demethoxy-3',4'-diamino etoposide]",216,,,,,104,87,87,91,108,102,,,,,,,
"COc1cc(C2c3cc4c(cc3C(OC3OC5COC(C)OC5C(O)C3O)C3COC(=O)C23)OCO4)cc(NC(C)=O)c1NC(C)=O (stereo not shown) [Example 4, 4'-Dehydroxy-3'-demethoxy-3',4'-bis-acetylamino etoposide]",105,,,116,98,,,106,123,> 250,,> 250,,,,,,
"COc1cc(C2c3cc4c(cc3C(OC3OC5COC(C)OC5C(O)C3O)C3COC(=O)C23)OCO4)cc(N=Cc2ccncc2)c1N=Cc1ccncc1 (stereo not shown) [Example 10, 4'-Dehydroxy-3'-demethoxy-3',4'-bis-(4-pyridylmethylene) amino Etoposide]",145,,,59,100,,,,,81,103,> 250,,,,,,
"COc1cc(C2c3cc4c(cc3C(OC3OC5COC(C)OC5C(O)C3O)C3COC(=O)C23)OCO4)cc2nn[nH]c12 (stereo not shown) [Example 17, 4'-Dehydroxy-3'-demethoxy-etoposide 3',4'-triazole]",125,,,45,55,,,91,88,53,62,78,89,64,88,84,82,
"COc1cc(C2c3cc4c(cc3C(OC3OC5COC(C)OC5C(O)C3O)C3COC(=O)C23)OCO4)cc2nc[nH]c12 (stereo not shown) [Example 18, 4'-Dehydroxy-3'-demethoxy etoposide 3',4'-imidazole]",115,,,82,55,,,116,115,> 250,,> 250,,,,,,
"COc1cc(C2c3cc4c(cc3C(OC3OC5COC(C)OC5C(O)C3O)C3COC(=O)C23)OCO4)cc2nc(C)c(C)nc12 (stereo not shown) [Example 20, 4'-Dehydroxy-3'-demethoxy-etoposide 3',4'-(2,3-dimethylpyrazine)]",110,,,118,113,,,113,90,103,99,> 250,,,,,,
"CCOP1(=S)Nc2cc(C3c4cc5c(cc4C(OC4OC6COC(C)OC6C(O)C4O)C4COC(=O)C34)OCO5)cc(OC)c2N1 (stereo not shown) [Example 21, 4'-Dehydroxy-3'-demethoxy etoposide 3',4'-ethylthiophosphamide]",145,,,23,17.9,,,21,23,20,26,> 250,,,,,,
COc1cc([C@@H]2c3cc4c(cc3[C@@H](O[C@@H]3O[C@@H]5CO[C@@H](C)O[C@H]5[C@H](O)[C@H]3O)[C@H]3COC(=O)[C@H]23)OCO4)cc(OC)c1O [etoposide],,,,,,,,,,,,,,,,,,active in the treatment of a variety of cancers
COc1cc([C@@H]2c3cc4c(cc3[C@@H](O[C@@H]3O[C@@H]5CO[C@@H](c6cccs6)O[C@H]5[C@H](O)[C@H]3O)[C@H]3COC(=O)[C@H]23)OCO4)cc(OC)c1O [teniposide],,,,,,,,,,,,,,,,,,active in the treatment of a variety of cancers

# Source: patent US4874851A, “3',4'-dinitrogen substituted epipodophyllotoxin glucoside derivatives” (Bristol-Meyers Company, priority 1987, dated 1989)
